Laboratory results published in US6140360A, “Antifungal agent” (TOA Gosei Co., Ltd., priority 1996, dated 2000).
≈ marks a conversion by molar mass, not a printed value. Read-outs that look alike come from different tables or passages of the source. Values belong to the molecule of their own block, whether it stands above or below them.

Key:
Candida albicans [1] = experiment: in vitro antifungal activity (MIC); type: cell-based
Procedure: Using Candida albicans, Aspergillus niger, Aspergillus fumigatus, and Cryptococcus neoformans as test fungi, in vitro antifungal activities were determined to confirm the antifungal activities of cryptoporic acids A, B, and D. The test method and the results are shown below.
The fungal strains used for this test were standard strains provided by Teikyo University, Institute of Medical Mycology. Drug sensitivity was measured using Yeast Morphology Agar (Difco) as media.
The test fungi were spread over slant made of a potato dextrose agar medium (NissuiSeiyaku) and cultured at 30° C. for one day (Candida, Cryptococcus) or four days (Aspergillus niger, Aspergillus neoformans). After culturing, fungi on the slant were washed away with sterile physiological saline supplemented with 0.1% Tween 80. The solution was passed through a filter with 15 μm pores. The fungi were counted on a hemocytometer and adjusted to 10^5 CFU/ml to serve as an inoculation solution. A 0.02 ml portion of this solution was inoculated into Yeast Morphology Agar containing test agents by two-fold serial dilution and cultured at 30° C. for 1 or 4 days.
Antifungal effect was judged with naked eyes. Concentrations at which evident inhibition of growth was observed compared with control media containing no drug were taken as MIC values.
Candida albicans, Aspergillus niger, Aspergillus fumigatus, and Cryptococcus neoformans were used as test fungi. The test for in vitro antifungal activity was conducted in the same manner as in 1 above to confirm antifungal activity.
3. In vitro antifungal activities of cryptoporic acid derivatives represented by formula 3 and a commercially available antifungal agent, Diflucan, were tested using Candida albicans as test fungi in the same manner.

Aspergillus fumigatus [2] = experiment: in vitro antifungal activity (MIC); type: cell-based; details: Table 2, Yeast Morphology Agar, 30° C.
Procedure: Using Candida albicans, Aspergillus niger, Aspergillus fumigatus, and Cryptococcus neoformans as test fungi, in vitro antifungal activities were determined to confirm the antifungal activities of cryptoporic acids A, B, and D. The test method and the results are shown below. The fungal strains used for this test were standard strains provided by Teikyo University, Institute of Medical Mycology. Drug sensitivity was measured using Yeast Morphology Agar (Difco) as media. The test fungi were spread over slant made of a potato dextrose agar medium (NissuiSeiyaku) and cultured at 30° C. for one day (Candida, Cryptococcus) or four days (Aspergillus niger, Aspergillus neoformans). After culturing, fungi on the slant were washed away with sterile physiological saline supplemented with 0.1% Tween 80. The solution was passed through a filter with 15 μm pores. The fungi were counted on a hemocytometer and adjusted to 10^5 CFU/ml to serve as an inoculation solution. A 0.02 ml portion of this solution was inoculated into Yeast Morphology Agar containing test agents by two-fold serial dilution and cultured at 30° C. for 1 or 4 days. Antifungal effect was judged with naked eyes. Concentrations at which evident inhibition of growth was observed compared with control media containing no drug were taken as MIC values. […]

Aspergillus fumigatus [3] = experiment: Infection-Treating Test, Aspergillus fumigatus infected mice; type: in vivo, mice (ICR); details: oral in sesame oil, first dose 1 hour after i.v. inoculation (2.0×10^6 CFU/mouse), once a day, total seven days, survival, Weil method
Procedure: (§1) Candida albicans (1.0×10^6 CFU/mouse) or Aspergillus fumigatus (2.0×10^6 CFU/mouse) was suspended in physiological saline, and a 0.2 ml portion of each solution was injected into healthy grown mice (ICR, 4 week-old, female, 19-22 g, Nihon CLEA) via the caudal vein to establish infection. Cryptoporic acid H was dissolved in sesame oil in prescribed concentrations, and a 0.2 ml portion was orally administered per dose to the mice through a stomach probe. The first administration was conducted 1 hour after inoculation of fungi. Thereafter, administration was conducted six times (once a day every 24 hours; for a total of seven days). only the base (0.2 ml) was administered to the control group. Treatment effectiveness was evaluated with ED50 by using the Weil method from the survival rate of treated mice when all the control animals died.

Candida albicans [4] = experiment: Infection-Treating Test, Candida albicans infected mice; type: in vivo, mice (ICR); details: oral in sesame oil, first dose 1 hour after i.v. inoculation (1.0×10^6 CFU/mouse), once a day, total seven days, survival, Weil method
Procedure: as §1

Solubility = type: physicochemical; details: in methanol, acetone, and ethyl acetate
[5] = 24 h, Table 1, Yeast Morphology Agar, 30° C., 1 day, read-out: MIC (Candida albicans)

Compound: C=C1CC[C@H]2C(C)(C)CCC[C@]2(C)[C@H]1COC(C(=O)OC)C(CC(=O)O)C(=O)OC (stereo partly drawn) [Cryptoporic acid A]
MIC (Candida albicans [1]; [5]): 25 µg/mL (≈ 58.9 µM)

Compound: C=C1CC[C@H]2[C@](C)(CO)CCC[C@]2(C)[C@H]1COC(C(=O)OC)C(CC(=O)O)C(=O)OC (stereo partly drawn) [Cryptoporic acid B]
MIC (Candida albicans [1]; [5]): 25 µg/mL (≈ 56.7 µM)
MIC (Aspergillus fumigatus [2]): 200 µg/mL (≈ 454 µM)

Compound: C=C1CCC2C3(C)CCCC2(C)C1COC(C(=O)OC)C(CC(=O)O)C(=O)OCC1(C)CCCC2(C)C(COC(C(=O)OC)C(CC(=O)O)C(=O)OC3)C(=C)CCC12 (stereo not drawn) [Cryptoporic acid D]
MIC (Candida albicans [1]; [5]): 100 µg/mL (≈ 122 µM)

Compound: C=C1CC[C@H]2C(C)(C)CCC[C@]2(C)[C@H]1COC(C(=O)O)C(CC(=O)O)C(=O)O (stereo partly drawn) [Cryptoporic acid H]
ED50 (Aspergillus fumigatus [3]): 2 mg/kg
ED50 (Candida albicans [4]): 0.32 mg/kg

Compound: OC(Cn1cncn1)(Cn1cncn1)c1ccc(F)cc1F [Diflucan, reference compound]
MIC (Candida albicans [1]; TIMM1623): 25 µg/mL (≈ 81.6 µM)

Second part, the molecule after the results:

Solubility (Solubility): Easily soluble
Compound: C=C1CC[C@H]2C(C)(C)CCC[C@]2(C)[C@H]1COC(C(=O)OC)C(CC(=O)O)C(=O)O[C@H]1CC(C)(C)[C@@H]2CC=C(C=O)[C@H](C=O)[C@@]2(C)C1 (stereo partly drawn) [TG 101]

Solubility (Solubility): Easily soluble
Compound: C=C1CC[C@H]2C(C)(C)CCC[C@]2(C)[C@H]1COC(C(=O)OC)C(CC(=O)O)C(=O)O[C@H]1CC(C)(C)[C@@H]2CC=C3COC(O)[C@@H]3[C@@]2(C)C1 (stereo partly drawn) [TG 103]
